Read-outs that look alike come from different tables or passages of the source.
Columns and labels:
DNA-PK = DNA-PK (Homo sapiens (Human), UniProt P78527); assay: DNA-PK assay (biochemical), flashplate 33P-ATP kinase assay
Method in brief: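 Radiometric kinase reaction in streptavidin-coated flashplates, stopped with 200 mM EDTA, then 30 min room-temperature incubation and saline washes.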

Kv11.1 (hERG) = Kv11.1 (hERG) (Homo sapiens (Human), UniProt Q12809); assay: Kv11.1 (hERG) ion channel activity (patch clamp assay), HEK293 cells transfected with hERG gene
Protocol: C) Kv11.1 (hERG) Ion Channel Activity (Patch Clamp Assay)
The patch-clamp measurement was carried out at room temperature in whole-cell configuration on human embryonic kidney cells (HEK293) which have been transfected in a stable manner with the hERG gene.
The whole-cell configurations were carried out using an automated patch clamp device (Patchliner™, Nanion Technologies, Munich). […] The glass chip has a hole of defined size to which the cell is transferred into the Gigaseal by application of a reduced pressure and brought into the whole-cell configuration. Buffer, cell suspension and test substances were added to microchannels of the chip using a Teflon-coated pipette. The cells were clamped to a holding potential of −80 mV. For measurement of substance-promoted inhibition of the Kv11.1 channel, the following voltage protocol was applied at 10-second intervals: 51 ms/−80 mV, 500 ms/+40 mV, 500 ms/−40 mV, 200 ms/−80 mV. The leakage current is subtracted by means of the P4 method. The cells were resuspended in extracellular buffer (EC) and applied to the chip. After the cell had been collected, the seal was improved by addition of a seal enhancer buffer. As soon as the whole-cell configuration had been reached, the seal enhancer buffer was washed out and replaced by extracellular buffer. The measurement started in EC for 1.5 min. DMSO (vehicle control, 0.1% of DMSO) was then applied, and the control current was recorded for 3 min. The test substance was subsequently added twice in the same concentration, and the potassium current was measured for 3.5 min in each case.
The reference substance used was the Kv11.1 (hERG) ion channel blocker quinidine. The effects of test substances and quinidine were standardised to the associated vehicle control. The effect on the Kv11.1 (hERG) channel activity was assessed from the potassium current at −40 mV. For the calculation, the current was evaluated for the respective final trace.
During the measurement, an aliquot of the test substance was taken for concentration determination. The sample was measured immediately by HPLC, and the final concentration was determined from a calibration curve.

[1] = biological target: DNA-PK phosphorylation at serine 2056 (Homo sapiens (Human), UniProt P78527); assay: DNA-PK phosphorylation at serine 2056 (cellular), bleomycin-treated HCT116 cells, ELISA; assay type: cell-based; conditions: read-out: IC50 pDNA-PK
Method in brief: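 After overnight seeding, HCT116 cells received compound with 10 μM bleomycin for 6 h; phospho-DNA-PK ELISA signals were scaled to total DNA-PKcs, DMSO serving as blank.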

[2] = read-out: Ki [Kv1.11 hERG], hERG patch clamp assay (cells without asterisk)
[3] = cellular DNA-PK phosphorylation at serine 2056, HCT116
[4] = read-out: Ki [Kv1.11 hERG], patch clamp, HEK293 transfected with hERG gene
[5] = cellular, HCT116 cells, 10 μM bleomycin, six hours
[6] = Ki [Kv1.11 hERG], hERG patch clamp assay (cells without asterisk)

Kv11.1 (hERG), sequence (Q12809 whole entry): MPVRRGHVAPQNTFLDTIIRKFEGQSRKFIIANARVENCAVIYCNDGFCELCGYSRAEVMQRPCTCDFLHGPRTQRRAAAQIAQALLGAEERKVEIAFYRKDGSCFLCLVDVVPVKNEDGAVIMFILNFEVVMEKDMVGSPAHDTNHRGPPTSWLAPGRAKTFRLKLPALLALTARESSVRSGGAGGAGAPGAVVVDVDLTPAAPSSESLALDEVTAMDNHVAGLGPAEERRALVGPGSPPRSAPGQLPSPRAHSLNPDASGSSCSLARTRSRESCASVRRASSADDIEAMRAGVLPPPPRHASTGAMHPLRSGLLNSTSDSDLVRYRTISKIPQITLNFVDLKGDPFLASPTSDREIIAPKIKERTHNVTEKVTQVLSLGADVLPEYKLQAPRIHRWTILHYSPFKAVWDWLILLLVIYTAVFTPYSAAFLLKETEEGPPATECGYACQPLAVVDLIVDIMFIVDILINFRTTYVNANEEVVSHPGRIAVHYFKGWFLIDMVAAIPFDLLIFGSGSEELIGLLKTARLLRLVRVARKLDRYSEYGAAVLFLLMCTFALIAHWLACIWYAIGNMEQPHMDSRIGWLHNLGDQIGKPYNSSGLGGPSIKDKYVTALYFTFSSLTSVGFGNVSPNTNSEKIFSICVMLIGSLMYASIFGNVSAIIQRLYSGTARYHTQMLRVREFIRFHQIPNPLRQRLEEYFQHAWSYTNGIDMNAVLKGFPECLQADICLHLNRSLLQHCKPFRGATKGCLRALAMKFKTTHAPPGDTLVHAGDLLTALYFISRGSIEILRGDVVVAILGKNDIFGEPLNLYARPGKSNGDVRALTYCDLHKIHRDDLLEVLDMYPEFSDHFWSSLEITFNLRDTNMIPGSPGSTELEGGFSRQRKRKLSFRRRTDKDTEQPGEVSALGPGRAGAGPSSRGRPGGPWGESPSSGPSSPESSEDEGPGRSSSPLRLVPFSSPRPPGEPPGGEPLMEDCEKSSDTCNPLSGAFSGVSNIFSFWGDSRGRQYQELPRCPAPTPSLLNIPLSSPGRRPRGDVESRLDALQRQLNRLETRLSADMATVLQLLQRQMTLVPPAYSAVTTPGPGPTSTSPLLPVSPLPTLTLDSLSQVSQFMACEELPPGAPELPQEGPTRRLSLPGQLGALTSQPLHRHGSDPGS

Compound | IC50 (DNA-PK; biochemical DNA-PK assay) [µM] | IC50 [1, 3] [µM] | IC50 (DNA-PK; enzymatic, 5 μM ATP) [µM] | IC50 [1, 5] [µM] | Ki (Kv11.1 (hERG); [4]) [µM] | further results
OC(c1ccc2ncnn2c1)c1cc(-c2ncnc3cc(N4CCOCC4)ccc23)c(F)cc1F (stereo not drawn) [Example 222, [2,4-Difluro-5-(7-morpholin-4-yl-quinazolin-4-yl)-phenyl]-[l,2,4]-triazolo[1,5-a]pyridin-6-ylmethanol] |  |  |  |  |  | IC50 (DNA-PK; Table 7): 0.003 to 0.007 µM; Ki (Kv11.1 (hERG); read-out: Ki [Kv1.11 hERG], Table 7): > 25 µM; IC50 ([1]; Table 7, HCT116 cells): 0.5 to 5 µM
Cc1cccnc1C(O)c1ccc(F)c(-c2ncnc3cc(N4CCOCC4)ccc23)c1 (stereo not drawn) [Example 472, [4-Fluoro-3-(7-morpholin-4-yl-quinazolin-4-yl)-phenyl]-(3-methyl-pyridin-2-yl)methanol] | 0.003 to 0.007 | < 0.5 |  |  |  | Ki (Kv11.1 (hERG); [2]): > 25 µM
COc1cnc(C(O)c2ccc(OC)c(-c3ncnc4cc(N5CCOCC5)ccc34)c2)cn1 (stereo not drawn) [Example 61, [4-methoxy-3-(7-morpholin-4-yl-quinazolin-4-yl)phenyl]-(5-methoxypyrazin-2-yl)methanol] |  |  | > 0.03 | 10 to 30 | > 25 | 
COc1ccc([C@H](O)c2ccc(F)c(-c3ncnc4cc(N5CCOCC5)ccc34)c2)nn1 [Example 71, (R)-[4-Fluoro-3-(7-morpholin-4-yl-quinazolin-4-yl)phenyl]-(6-methoxypyridazin-3-yl)methanol] |  |  | < 0.003 | 0.5 to 5 | > 25 | 
Cn1nc(C(O)c2cc(-c3ncnc4cc(N5CCOCC5)ccc34)c(F)cc2Cl)ccc1=O (single isomer, unassigned) [Example 45, 6-{[2-Chloro-4-fluoro-5-(7-morpholin-4-yl-quinazolin-4-yl)phenyl]-hydroxymethyl}-2-methyl-2H-pyridazin-3-one] |  |  | < 0.003 | < 0.5 | 15 to 25 | 
OC(c1ccc(F)c(-c2ncnc3cc(N4CCOCC4)ccc23)c1)c1cccnn1 (stereo not drawn) [Example 65, [4-Fluoro-3-(7-morpholin-4-yl-quinazolin-4-yl)phenyl]-pyridazin-3-ylmethanol] |  |  | 0.007 to 0.03 | 0.5 to 5 | > 25 | 
NCCn1nc(C(O)c2cc(-c3ncnc4cc(N5CCOCC5)ccc34)c(F)cc2Cl)ccc1=O (stereo not drawn) [Example 94, 2-(2-Amino-ethyl)-6-{[2-Chloro-4-fluoro-5-(7-morpholin-4-yl-quinazolin-4-yl)phenyl]-hydroxymethyl}-2H-pyridazin-3-one] |  |  | 0.007 to 0.03 | 10 to 30 | > 25 | 
COc1ccc(C(O)c2ccc(F)c(-c3ncnc4cc(N5CCOCC5)cc(F)c34)c2)nn1 (stereo not drawn) [Example 260, [4-Fluoro-3-(5-fluoro-7-morpholin-4-yl-quinazolin-4-yl)-phenyl]-(6-methoxy-pyridazin-3-yl)-methanol] | < 0.003 | < 0.5 |  |  |  | Ki (Kv11.1 (hERG); [2]): > 25 µM
Cc1cc(F)c(-c2ncnc3cc(N4CCOCC4)ccc23)cc1C(O)c1nccs1 (stereo not drawn) [Example 209, [4-Fluoro-2-methyl-5-(7-morpholin-4-yl-quinazolin-4-yl)-phenyl]thiazol-2-ylmethanol] |  |  | > 0.03 | 10 to 30 | > 25 | 
COc1nccnc1C(O)c1cc(-c2ncnc3cc(N4CCOCC4)ccc23)ccc1Cl (stereo not drawn) [Example 422, [2-Chloro-5-(7-morpholin-4-yl-quinazolin-4-yl)-phenyl]-(3-methoxy-pyrazin-2-yl)-methanol] | 0.003 to 0.007 | 0.5 to 5 |  |  |  | Ki (Kv11.1 (hERG); [2]): 10 to 15 µM
CN(C)c1ccc(C(O)c2ccc(F)c(-c3ncnc4cc(N5CCOCC5)ccc34)c2)nn1 (stereo not drawn) [Example 68, (6-Dimethylamino-pyridazin-3-yl)-[4-fluoro-3-(7-morpholin-4-yl-quinazolin-4-yl)phenyl]-methanol] |  |  | 0.003 to 0.007 | 5 to 10 | > 25 | 
OC(c1cccnn1)c1cc(-c2ncnc3cc(N4CCOCC4)ccc23)c(F)cc1Cl (single isomer, unassigned) [Example 29, [2-Chloro-4-fluoro-5-(7-morpholin-4-yl-quinazolin-4-yl)phenyl]-pyridazin-3-ylmethanol] |  |  | 0.007 to 0.03 | 10 to 30 |  | Ki (Kv11.1 (hERG); human, HEK293 cells stably transfected with the hERG gene, Ki [Kv1.11 hERG], patch clamp, HEK293 transfected with hERG gene): 15 to 25 µM
CNC(=O)c1ccc(C(O)c2cc(-c3ncnc4cc(N5CCOCC5)ccc34)c(F)cc2Cl)nn1 (stereo not drawn) [Example 43, 6-{[2-Chloro-4-fluoro-5-(7-morpholin-4-yl-quinazolin-4-yl)phenyl]-hydroxymethyl}-pyridazine-3-carboxylic acid methylamide] |  |  | 0.003 to 0.007 | 0.5 to 5 | > 25 | 
COc1ccc(C(O)(c2cc(-c3ncnc4cc(N5CCOCC5)ccc34)c(F)cc2Cl)C(F)F)nn1 (stereo not drawn) [Example 123, 1-[2-Chloro-4-fluoro-5-(7-morpholin-4-yl-quinazolin-4-yl)-phenyl]-2,2-difluoro-1-(6-methoxy-pyridazin-3-yl)-ethanol] |  |  | 0.007 to 0.03 | 10 to 30 | > 25 | 
CCn1cc(C(O)c2cc(-c3ncnc4cc(N5CCOCC5)ccc34)c(F)cc2Cl)cn1 (stereo not drawn) [Example 202, [2-Chloro-4-fluoro-5-(7-morpholin-4-ylquinazolin-4-yl)-phenyl]-(1-ethyl-1H-pyrazol-4-yl)-methanol] |  |  |  |  |  | IC50 (DNA-PK; Table 5): 0.007 to 0.03 µM; Ki (Kv11.1 (hERG); Ki [Kv1.11 hERG], Table 5): 15 to 25 µM; IC50 ([1]; Table 5, HCT116 cells): 0.5 to 5 µM
Cc1nccnc1[C@@H](O)c1ccc(F)c(-c2ncnc3cc(N4CCOCC4)ccc23)c1 [Example 82] |  |  | 0.007 to 0.03 | 0.5 to 5 | > 25 | 
COc1cnc(C(O)c2ccc(F)c(-c3ncnc4cc(N5CCOCC5)ccc34)c2)nc1 (stereo not drawn) [Example 67, [4-Fluoro-3-(7-morpholin-4-yl-quinazolin-4-yl)phenyl]-(5-methoxypyrimidin-2-yl)methanol] |  |  | 0.007 to 0.03 | 5 to 10 | > 25 | 
Cc1nc(C(O)c2cc(-c3ncnc4cc(N5CCOCC5)ccc34)cnc2F)sc1C (stereo not drawn) [Example 205, (4,5-Dimethyl-thiazol-2-yl)-[2-fluoro-5-(7-morpholin-4-yl-quinazolin-4-yl)-pyridin-3-yl]-methanol] |  |  |  |  |  | IC50 (DNA-PK; Table 5): 0.007 to 0.03 µM; Ki (Kv11.1 (hERG); Ki [Kv1.11 hERG], Table 5): 10 to 15 µM; IC50 ([1]; Table 5, HCT116 cells): 10 to 30 µM
Cn1c(C(O)c2ccc(F)c(-c3ncnc4cc(N5CCOCC5)ccc34)c2)cccc1=O (stereo not drawn) [Example 91, 6-{[4-Fluoro-3-(7-morpholin-4-yl-quinazolin-4-yl)-phenyl]hydroxy-methyl}-1-methyl-1H-pyridin-2-one] |  |  | < 0.003 | < 0.5 | > 25 | 

Continued, in another order:

IC50 (DNA-PK; biochemical DNA-PK assay) [µM] | IC50 [1, 3] [µM] | IC50 (DNA-PK; enzymatic, 5 μM ATP) [µM] | IC50 [1, 5] [µM] | Compound | Ki (Kv11.1 (hERG); [4]) [µM] | further results
0.003 to 0.007 | 0.5 to 5 |  |  | OC(c1cc(-c2ncnc3cc(N4CCOCC4)ccc23)ccc1Cl)c1nccn2cccc12 (stereo not drawn) [Example 361, (2-Chloro-5-(7-morpholin-4-yl-quinazolin-4-yl)-phenyl]pyrrolo[1,2-a]-pyrazin-1-ylmethanol] |  | Ki (Kv11.1 (hERG); [2]): < 10 µM
< 0.003 | < 0.5 |  |  | Cn1c(C(O)c2cc(-c3ncnc4cc(N5CCOCC5)ccc34)c(F)cc2Cl)cccc1=O (stereo not drawn) [Example 383, 6-{[2-Chloro-4-fluoro-5-(7-morpholin-4-yl-quinazolin-4-yl)-phenyl]hydroxy-methyl}-1-methyl-1H-pyridin-2-one] |  | Ki (Kv11.1 (hERG); [2]): > 25 µM
0.007 to 0.03 | 10 to 30 |  |  | NC(=O)C(c1ccc(F)c(-c2ncnc3cc(N4CCOCC4)ccc23)c1)c1ncnn2cccc12 (stereo not drawn) [Example 299, 2-[4-Fluoro-3-(7-morpholin-4-yl-quinazolin-4-yl)-phenyl]-2-pyrrolo-[2,1-f][1,2,4]triazin-4-ylacetamide] |  | Ki (Kv11.1 (hERG); [2]): < 10 µM
< 0.003 | 0.5 to 5 |  |  | COc1cncnc1C(O)c1cc(-c2ncnc3cc(N4CCOCC4)ccc23)c(F)cc1F (stereo not drawn) [Example 448, [2,4-Difluoro-5-(7-morpholin-4-yl-quinazolin-4-yl)-phenyl]-(5-methoxy-pyrimidin-4-yl)-methanol] |  | Ki (Kv11.1 (hERG); [6]): 10 to 15 µM
0.007 to 0.03 | < 0.5 |  |  | Cc1nccnc1C(O)c1cc(-c2ncnc3cc(N4CCOCC4)ccc23)ccc1Cl (stereo not drawn) [Example 428, [2-Chloro-5-(7-morpholin-4-yl-quinazolin-4-yl)-phenyl]-(3-methyl-pyrazin-2-yl)-methanol] |  | Ki (Kv11.1 (hERG); [6]): 10 to 15 µM
0.003 to 0.007 | < 0.5 |  |  | OC(c1cc(-c2ncnc3cc(N4CCOCC4)ccc23)ccc1Cl)c1ncnc2sccc12 (stereo not drawn) [Example 430, [2-Chloro-5-(7-morpholin-4-yl-quinazolin-4-yl)-phenyl]thieno[2,3-d}-pyrimidin-4-yl-methanol] |  | Ki (Kv11.1 (hERG); [2]): > 25 µM
0.007 to 0.03 | 5 to 10 |  |  | Cc1cncc(C(O)c2ccc(F)c(-c3ncnc4cc(N5CCOCC5)ccc34)c2)n1 (stereo not drawn) [Example 296, [4-Floro-3-(7-morpholin-4-yl-quinazolin-4-yl)-phenyl]-(6-methyl-pyrazin-2-yl)-methanol] |  | Ki (Kv11.1 (hERG); [2]): > 25 µM
0.007 to 0.03 | 0.5 to 5 |  |  | Cn1c(C(O)c2cc(-c3ncnc4cc(N5CCOCC5)ccc34)c(F)cc2Cl)cccc1=O (stereo not drawn) [Example 382, 6-{[2-Chloro-4-fluoro-5-(7-morpholin-4-yl-quinazolin-4-yl)-phenyl]hydroxy-melhyl}-1-methyl-1H-pyridin-2-one] |  | Ki (Kv11.1 (hERG); [6]): 15 to 25 µM
< 0.003 | 0.5 to 5 |  |  | COc1cncnc1C(O)c1cc(-c2ncnc3cc(N4CCOCC4)ccc23)c(F)cc1Cl (stereo not drawn) [Example 447, [2-Chloro-4-fluoro-5-(7-morpholin-4-yl-quinazolin-4-yl)-phenyl]-(5-methoxy-pyrimidin-4-yl)-methanol] |  | Ki (Kv11.1 (hERG); [6]): 10 to 15 µM

From patent US9732094B2, “Arylquinazolines” (Merck Patent GmbH, priority 2013, dated 2017)
